Results on eleven compounds are retold here after ChEMBL document CHEMBL5291721, “A preclinical secondary pharmacology resource illuminates target-adverse drug reaction associations of marketed drugs” (Nat Commun, 2023).

In experiment [1] the target is T1, Cholecystokinin receptor type A (Homo sapiens, UniProt P32238).
T1 sequence (P32238 whole entry): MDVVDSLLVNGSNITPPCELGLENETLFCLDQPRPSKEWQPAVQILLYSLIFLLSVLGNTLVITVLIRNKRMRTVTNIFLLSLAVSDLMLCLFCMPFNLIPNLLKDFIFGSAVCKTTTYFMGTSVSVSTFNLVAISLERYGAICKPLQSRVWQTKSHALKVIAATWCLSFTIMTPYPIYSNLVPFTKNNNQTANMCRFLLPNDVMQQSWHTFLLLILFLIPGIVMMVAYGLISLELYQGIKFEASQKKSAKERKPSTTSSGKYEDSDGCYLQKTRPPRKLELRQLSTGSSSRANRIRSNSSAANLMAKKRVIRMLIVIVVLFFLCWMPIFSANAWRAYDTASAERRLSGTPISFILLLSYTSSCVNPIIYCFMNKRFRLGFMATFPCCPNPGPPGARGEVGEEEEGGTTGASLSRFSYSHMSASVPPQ

Experiment [2] deals with T2, Muscarinic acetylcholine receptor M1 (Homo sapiens, UniProt P11229).
T2 sequence (P11229 whole entry): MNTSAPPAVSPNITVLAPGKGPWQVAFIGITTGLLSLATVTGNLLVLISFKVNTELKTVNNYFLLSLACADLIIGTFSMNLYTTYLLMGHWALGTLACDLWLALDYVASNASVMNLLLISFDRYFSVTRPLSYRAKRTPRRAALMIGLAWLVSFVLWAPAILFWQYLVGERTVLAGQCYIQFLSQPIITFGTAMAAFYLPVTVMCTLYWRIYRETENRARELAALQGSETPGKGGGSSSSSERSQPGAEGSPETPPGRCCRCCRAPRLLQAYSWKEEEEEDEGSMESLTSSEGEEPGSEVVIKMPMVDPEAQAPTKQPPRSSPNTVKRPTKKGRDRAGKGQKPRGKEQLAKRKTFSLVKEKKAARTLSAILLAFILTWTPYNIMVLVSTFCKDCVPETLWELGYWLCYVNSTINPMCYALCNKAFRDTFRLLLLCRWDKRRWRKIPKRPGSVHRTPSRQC
In kind it is functional, cell-based.

Experiment [3] concerns the target T3, 5-hydroxytryptamine receptor 2C (Homo sapiens, UniProt P28335).
T3 sequence (P28335 whole entry): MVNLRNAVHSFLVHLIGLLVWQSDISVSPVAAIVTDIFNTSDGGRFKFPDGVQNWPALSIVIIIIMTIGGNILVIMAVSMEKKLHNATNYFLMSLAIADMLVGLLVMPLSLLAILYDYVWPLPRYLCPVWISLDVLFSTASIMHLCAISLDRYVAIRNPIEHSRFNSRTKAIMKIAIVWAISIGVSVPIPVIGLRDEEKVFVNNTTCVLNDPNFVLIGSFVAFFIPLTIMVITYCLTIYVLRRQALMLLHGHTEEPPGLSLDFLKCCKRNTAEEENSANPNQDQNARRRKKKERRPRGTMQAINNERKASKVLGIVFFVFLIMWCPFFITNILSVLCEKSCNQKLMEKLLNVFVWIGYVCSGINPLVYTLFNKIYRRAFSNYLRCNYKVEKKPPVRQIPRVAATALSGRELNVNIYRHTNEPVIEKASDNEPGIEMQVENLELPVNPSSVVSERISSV

In experiment [4] the target is T4, Neuropeptide Y receptor type 1 (Homo sapiens, UniProt P25929).
T4 sequence (P25929 whole entry): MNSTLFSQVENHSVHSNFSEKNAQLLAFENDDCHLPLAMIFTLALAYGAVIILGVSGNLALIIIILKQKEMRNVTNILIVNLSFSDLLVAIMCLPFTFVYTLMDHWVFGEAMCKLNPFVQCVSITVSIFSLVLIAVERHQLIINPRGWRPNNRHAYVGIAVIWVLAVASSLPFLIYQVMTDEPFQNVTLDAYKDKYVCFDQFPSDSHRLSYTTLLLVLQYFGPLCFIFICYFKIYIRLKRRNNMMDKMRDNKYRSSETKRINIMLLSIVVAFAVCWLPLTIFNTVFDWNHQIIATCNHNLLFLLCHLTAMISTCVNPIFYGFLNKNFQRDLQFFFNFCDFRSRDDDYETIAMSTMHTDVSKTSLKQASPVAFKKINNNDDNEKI

The target in experiment [5] is Sodium-dependent dopamine transporter (Homo sapiens, UniProt Q01959).
Sodium-dependent dopamine transporter, sequence (Q01959 whole entry): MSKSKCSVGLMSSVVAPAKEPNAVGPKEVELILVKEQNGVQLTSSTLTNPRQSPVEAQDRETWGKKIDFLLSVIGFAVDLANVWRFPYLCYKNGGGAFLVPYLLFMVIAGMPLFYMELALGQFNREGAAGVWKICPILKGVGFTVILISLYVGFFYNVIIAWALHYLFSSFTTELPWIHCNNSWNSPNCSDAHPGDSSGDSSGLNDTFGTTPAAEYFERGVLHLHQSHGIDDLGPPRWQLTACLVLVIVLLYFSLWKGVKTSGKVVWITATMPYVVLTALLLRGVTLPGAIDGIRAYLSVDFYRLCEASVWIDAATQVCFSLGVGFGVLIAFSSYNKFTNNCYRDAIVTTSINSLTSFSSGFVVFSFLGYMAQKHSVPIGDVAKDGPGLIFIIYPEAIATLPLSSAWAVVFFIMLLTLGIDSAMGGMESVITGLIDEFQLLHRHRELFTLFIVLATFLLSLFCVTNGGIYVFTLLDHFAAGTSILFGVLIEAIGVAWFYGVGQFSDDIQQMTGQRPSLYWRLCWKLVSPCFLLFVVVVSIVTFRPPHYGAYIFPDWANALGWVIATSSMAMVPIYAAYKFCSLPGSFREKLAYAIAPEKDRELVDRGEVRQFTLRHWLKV
The target of experiment [6] is T5, 5-hydroxytryptamine receptor 1A (Homo sapiens, UniProt P08908).
T5 sequence (P08908 whole entry): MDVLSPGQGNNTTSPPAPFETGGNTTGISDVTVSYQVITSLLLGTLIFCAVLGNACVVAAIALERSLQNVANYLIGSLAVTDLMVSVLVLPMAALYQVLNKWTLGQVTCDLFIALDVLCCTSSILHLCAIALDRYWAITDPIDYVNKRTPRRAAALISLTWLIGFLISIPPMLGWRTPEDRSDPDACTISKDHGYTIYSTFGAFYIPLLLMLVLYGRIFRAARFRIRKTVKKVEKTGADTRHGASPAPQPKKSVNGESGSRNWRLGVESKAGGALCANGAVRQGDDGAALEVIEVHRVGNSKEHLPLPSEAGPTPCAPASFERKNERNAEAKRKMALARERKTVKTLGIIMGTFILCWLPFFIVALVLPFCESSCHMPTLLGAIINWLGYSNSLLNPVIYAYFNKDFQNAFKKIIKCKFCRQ
It is filed as functional, cell-based.

Experiment [7] addresses 5-hydroxytryptamine receptor 2B (Homo sapiens, UniProt P41595). In kind it is functional, cell-based.
Experiment [8] addresses D(3) dopamine receptor (Homo sapiens, UniProt P35462).

Where only a bound is given, the exact number is not on record here.
Further: assay procedure not described here.

D(3) dopamine receptor, sequence (P35462 whole entry): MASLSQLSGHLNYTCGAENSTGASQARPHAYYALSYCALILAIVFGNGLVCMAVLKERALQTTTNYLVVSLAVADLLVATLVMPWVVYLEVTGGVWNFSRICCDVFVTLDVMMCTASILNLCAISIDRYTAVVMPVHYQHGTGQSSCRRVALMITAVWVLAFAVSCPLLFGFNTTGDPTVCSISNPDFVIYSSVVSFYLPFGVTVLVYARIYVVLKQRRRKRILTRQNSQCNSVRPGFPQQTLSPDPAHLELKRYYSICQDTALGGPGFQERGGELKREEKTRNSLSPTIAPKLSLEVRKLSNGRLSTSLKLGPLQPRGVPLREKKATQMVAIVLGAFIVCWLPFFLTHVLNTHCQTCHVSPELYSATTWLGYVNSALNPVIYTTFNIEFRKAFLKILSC
5-hydroxytryptamine receptor 2B, sequence (P41595 whole entry): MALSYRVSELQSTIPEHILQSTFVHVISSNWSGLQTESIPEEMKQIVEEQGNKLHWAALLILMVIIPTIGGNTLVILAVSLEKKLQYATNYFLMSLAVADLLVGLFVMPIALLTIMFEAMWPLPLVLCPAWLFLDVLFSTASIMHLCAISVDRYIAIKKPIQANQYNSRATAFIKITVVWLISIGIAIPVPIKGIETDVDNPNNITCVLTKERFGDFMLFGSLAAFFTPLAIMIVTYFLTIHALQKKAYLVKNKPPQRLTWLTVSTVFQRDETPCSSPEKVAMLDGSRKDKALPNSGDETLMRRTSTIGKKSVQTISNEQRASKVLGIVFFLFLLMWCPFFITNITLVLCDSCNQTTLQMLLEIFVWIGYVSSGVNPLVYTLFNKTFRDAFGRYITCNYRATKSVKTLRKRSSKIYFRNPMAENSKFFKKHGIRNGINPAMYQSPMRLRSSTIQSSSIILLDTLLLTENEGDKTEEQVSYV

For the compound `C[C@]1(COc2ccc(N3CCC(Oc4ccc(OC(F)(F)F)cc4)CC3)cc2)Cn2cc([N+](=O)[O-])nc2O1`, the AC50 in experiment [1] was > 30 µM; in experiment [2], > 30 µM; in experiment [3], > 30 µM; in experiment [4], > 30 µM; in experiment [5], > 10 µM.
Turning to `CO/N=C(\C(=O)N[C@@H]1C(=O)N2C(C(=O)[O-])=C(C[n+]3cccc4c3CCC4)CS[C@H]12)c1csc(N)n1` [CEFPIROME], the AC50 in experiment [2], in experiment [6], in experiment [7], in experiment [3] and in experiment [8] was > 30 µM throughout.
As for `C1CNCCN1` [PIPERAZINE], the AC50 in experiment [2] was > 30 µM.
On the same count and under the same terms, the figure for `c1cc(CN2CCCNCCNCCCNCC2)ccc1CN1CCCNCCNCCCNCC1` [PLERIXAFOR] is > 30 µM; for `O=C(NC(Cc1cc(=O)[nH]c2ccccc12)C(=O)O)c1ccc(Cl)cc1` (stereo not given) [REBAMIPIDE] it is > 30 µM; for `CO[C@H]1/C=C/O[C@@]2(C)Oc3c(C)c(O)c4c(O)c(cc(O)c4c3C2=O)NC(=O)/C(C)=C\C=C\[C@H](C)[C@H](O)[C@@H](C)[C@@H](O)[C@@H](C)[C@H](OC(C)=O)[C@@H]1C` [RIFAMYCIN] it is 11.6 µM.
`CCCC(=O)O[C@H]1[C@H](C)O[C@@H](O[C@H]2[C@H](N(C)C)[C@@H](O)[C@H](O[C@H]3[C@@H](CC=O)C[C@@H](C)[C@@H](O)/C=C/C=C/C[C@@H](C)OC(=O)C[C@@H](O)[C@@H]3OC)O[C@@H]2C)C[C@@]1(C)OC(=O)CC` [ROKITAMYCIN]: in experiment [2], the AC50 was > 30 µM.
In the case of `CCCCCCCCCCCCCCCCCC(=O)NCCCC[C@H](NC(=O)CC[C@@H](NC(=O)[C@H](C)NC(=O)[C@@H](C)O[C@H]1[C@H](O)[C@@H](CO)OC(O)[C@@H]1NC(C)=O)C(N)=O)C(=O)O` (stereo not given in full) [ROMURTIDE], in experiment [2], the AC50 was > 30 µM.
Same read-out and setting: the result for `CCOC(=O)[C@H](CCc1ccccc1)N[C@H]1CS[C@H](c2cccs2)CN(CC(=O)O)C1=O` [TEMOCAPRIL] reads > 30 µM; that for `COc1cc([C@@H]2c3cc4c(cc3[C@@H](O[C@@H]3O[C@@H]5CO[C@@H](c6cccs6)O[C@H]5[C@H](O)[C@H]3O)[C@H]3COC(=O)[C@H]23)OCO4)cc(OC)c1O` [TENIPOSIDE], > 30 µM.
Turning to `CCSc1ccc2c(c1)N(CCCN1CCN(C)CC1)c1ccccc1S2` [THIETHYLPERAZINE], the AC50 in experiment [2] came out at 29.1 µM; in experiment [5] it was 15 µM.

The term AC50 denotes the concentration at which the activity in the assay is half-maximal. Low readings indicate activity at low concentration, high ones activity only at high concentration.
